Measured values taken from patent US20070128217A1 (priority 2003, published 2007).

How the values were obtained:
[1] = test system: rabbit serum obtained by immunizing a rabbit with the SARS-CoV strain Frankfurt 1; assay type: binding; parameters: Binding of a rabbit serum to linear peptides / Binding of a rabbit serum to looped peptides / Rabbit serum linear peptides / Rabbit serum looped peptides / Binding of a rabbit serum to linear peptides of protein N of SARS-CoV Urbani (Rabbit serum linear peptides) / Binding of a rabbit serum to looped/cyclic peptides of protein N of SARS-CoV Urbani (Rabbit serum looped peptides): unit not given here
[2] = test system: control sera (pooled serum of ten healthy LUMC hospital workers; commercial negative donor pooled serum from the Dutch bloodbank); assay type: binding, human; parameters: Binding of Control serum LUMC to linear peptides / Binding of Control serum Blood-bank to linear peptides / Binding of Control serum LUMC to looped peptides / Binding of Control Serum Blood-Bank to Looped peptides / Binding of Control serum LUMC to linear peptides of the protein M of SARS-CoV Urbani / Binding of Control serum Blood-bank to linear peptides of the protein M of SARS-CoV Urbani / Binding of Control serum LUMC to looped peptides of the protein M of SARS-CoV Urbani / Binding of Control Serum Blood-Bank to Looped peptides of the protein M of SARS-CoV Urbani: unit not given here

PLTKKNYSELDDEEP
Rabbit serum linear peptides [1]: 0.2
Rabbit serum looped peptides [1]: 0.4
Binding of Control Serum Blood-Bank to Looped peptides of the protein X3 of SARS-CoV Urbani [2]: 0.8
Binding of Control serum Blood-bank to linear peptides of the protein X3 of SARS-CoV Urbani [2]: 0.8
Binding of Control serum LUMC to linear peptides of the protein X3 of SARS-CoV Urbani [2]: 0.9
Binding of Control serum LUMC to looped peptides of the protein X3 of SARS-CoV Urbani [2]: 0.8

PSGTYEGNSPFHPLA
Rabbit serum linear peptides [1]: 0.5
Rabbit serum looped peptides [1]: 0.5
Binding of Control Serum Blood-Bank to Looped peptides [2]: 0.8
Binding of Control serum Blood-bank to linear peptides [2]: 0.9
Binding of Control serum LUMC to linear peptides [2]: 0.7
Binding of Control serum LUMC to looped peptides [2]: 0.9

PTVYVYSRVKNLNSS
Binding of a rabbit serum to linear peptides [1]: 0.7
Binding of a rabbit serum to looped peptides [1]: 0.7
Binding of Control Serum Blood-Bank to Looped peptides [2]: 1.1
Binding of Control serum Blood-bank to linear peptides [2]: 0.8
Binding of Control serum LUMC to linear peptides [2]: 0.5
Binding of Control serum LUMC to looped peptides [2]: 0.8

QDPAGGALIARCWYL
Rabbit serum linear peptides [1]: 0.5
Rabbit serum looped peptides [1]: 0.9
Binding of Control Serum Blood-Bank to Looped peptides [2]: 0.8
Binding of Control serum Blood-bank to linear peptides [2]: 0.7
Binding of Control serum LUMC to linear peptides [2]: 0.3
Binding of Control serum LUMC to looped peptides [2]: 0.6

QIGGYSEDRHSGVKD
Binding of a rabbit serum to linear peptides [1]: 0.1
Binding of a rabbit serum to looped peptides [1]: 0.5
Binding of Control Serum Blood-Bank to Looped peptides [2]: 0.3
Binding of Control serum Blood-bank to linear peptides [2]: 0.3
Binding of Control serum LUMC to linear peptides [2]: 0.5
Binding of Control serum LUMC to looped peptides [2]: 0.4

QVLKTMSLYMAISPK
Binding of a rabbit serum to linear peptides [1]: 0.1
Binding of a rabbit serum to looped peptides [1]: 0.5
Binding of Control Serum Blood-Bank to Looped peptides [2]: 0.4
Binding of Control serum Blood-bank to linear peptides [2]: 0.9
Binding of Control serum LUMC to linear peptides [2]: 0.7
Binding of Control serum LUMC to looped peptides [2]: 0.4

RHSGVKDYVVVHGYF
Binding of a rabbit serum to linear peptides [1]: 0.1
Binding of a rabbit serum to looped peptides [1]: 0.4
Binding of Control Serum Blood-Bank to Looped peptides [2]: 0.7
Binding of Control serum Blood-bank to linear peptides [2]: 0.6
Binding of Control serum LUMC to linear peptides [2]: 0.5
Binding of Control serum LUMC to looped peptides [2]: 0.6

RIGTQVLKTMSLYMA
Binding of a rabbit serum to linear peptides [1]: 0.4
Binding of a rabbit serum to looped peptides [1]: 0.5
Binding of Control Serum Blood-Bank to Looped peptides [2]: 0.6
Binding of Control serum Blood-bank to linear peptides [2]: 0.8
Binding of Control serum LUMC to linear peptides [2]: 0.5
Binding of Control serum LUMC to looped peptides [2]: 0.5

RQLFKPLTKKNYSEL
Rabbit serum linear peptides [1]: 0.3
Rabbit serum looped peptides [1]: 0.5
Binding of Control Serum Blood-Bank to Looped peptides of the protein X3 of SARS-CoV Urbani [2]: 0.9
Binding of Control serum Blood-bank to linear peptides of the protein X3 of SARS-CoV Urbani [2]: 0.9
Binding of Control serum LUMC to linear peptides of the protein X3 of SARS-CoV Urbani [2]: 0.8
Binding of Control serum LUMC to looped peptides of the protein X3 of SARS-CoV Urbani [2]: 0.7

RVKNLNSSEGVPDLL
Binding of a rabbit serum to linear peptides [1]: 0.8
Binding of a rabbit serum to looped peptides [1]: 0.6
Binding of Control Serum Blood-Bank to Looped peptides [2]: 0.7
Binding of Control serum Blood-bank to linear peptides [2]: 1.0
Binding of Control serum LUMC to linear peptides [2]: 1.0
Binding of Control serum LUMC to looped peptides [2]: 1.0

SIVRQLFKPLTKKNY
Rabbit serum linear peptides [1]: 0.3
Rabbit serum looped peptides [1]: 0.4
Binding of Control Serum Blood-Bank to Looped peptides of the protein X3 of SARS-CoV Urbani [2]: 0.8
Binding of Control serum Blood-bank to linear peptides of the protein X3 of SARS-CoV Urbani [2]: 0.8
Binding of Control serum LUMC to linear peptides of the protein X3 of SARS-CoV Urbani [2]: 0.7
Binding of Control serum LUMC to looped peptides of the protein X3 of SARS-CoV Urbani [2]: 0.8

SLVKPTVYVYSRVKN
Binding of a rabbit serum to linear peptides [1]: 0.3
Binding of a rabbit serum to looped peptides [1]: 0.6
Binding of Control Serum Blood-Bank to Looped peptides [2]: 0.7
Binding of Control serum Blood-bank to linear peptides [2]: 0.7
Binding of Control serum LUMC to linear peptides [2]: 1.0
Binding of Control serum LUMC to looped peptides [2]: 0.8

SSGVANPAMDPIYDE
Binding of a rabbit serum to linear peptides [1]: 0.1
Binding of a rabbit serum to looped peptides [1]: 0.6
Binding of Control Serum Blood-Bank to Looped peptides [2]: 0.7
Binding of Control serum Blood-bank to linear peptides [2]: 0.5
Binding of Control serum LUMC to linear peptides [2]: 0.5
Binding of Control serum LUMC to looped peptides [2]: 0.7

SSIVRQLFKPLTKKN
Rabbit serum linear peptides [1]: 0.4
Rabbit serum looped peptides [1]: 0.5
Binding of Control Serum Blood-Bank to Looped peptides of the protein X3 of SARS-CoV Urbani [2]: 0.8
Binding of Control serum Blood-bank to linear peptides of the protein X3 of SARS-CoV Urbani [2]: 1.2
Binding of Control serum LUMC to linear peptides of the protein X3 of SARS-CoV Urbani [2]: 1.1
Binding of Control serum LUMC to looped peptides of the protein X3 of SARS-CoV Urbani [2]: 0.7

SYYKLGASQRVGTDS
Rabbit serum linear peptides [1]: 0.4
Rabbit serum looped peptides [1]: 0.3
Binding of Control Serum Blood-Bank to Looped peptides of the protein M of SARS-CoV Urbani [2]: 0.8
Binding of Control serum Blood-bank to linear peptides of the protein M of SARS-CoV Urbani [2]: 0.8
Binding of Control serum LUMC to linear peptides of the protein M of SARS-CoV Urbani [2]: 0.4
Binding of Control serum LUMC to looped peptides of the protein M of SARS-CoV Urbani [2]: 0.7

TAQPVKIDNASPAST
Binding of a rabbit serum to linear peptides [1]: 0.1
Binding of a rabbit serum to looped peptides [1]: 0.4
Binding of Control Serum Blood-Bank to Looped peptides [2]: 0.5
Binding of Control serum Blood-bank to linear peptides [2]: 0.7
Binding of Control serum LUMC to linear peptides [2]: 0.6
Binding of Control serum LUMC to looped peptides [2]: 0.6

TGGIAIAMACIVGLM
Rabbit serum linear peptides [1]: 0.5
Rabbit serum looped peptides [1]: 0.3
Binding of Control Serum Blood-Bank to Looped peptides of the protein M of SARS-CoV Urbani [2]: 1.1
Binding of Control serum Blood-bank to linear peptides of the protein M of SARS-CoV Urbani [2]: 1.1
Binding of Control serum LUMC to linear peptides of the protein M of SARS-CoV Urbani [2]: 0.6
Binding of Control serum LUMC to looped peptides of the protein M of SARS-CoV Urbani [2]: 1.1

THNYDYCIPYNSVTD
Binding of a rabbit serum to linear peptides [1]: 0.1
Binding of a rabbit serum to looped peptides [1]: 0.6
Binding of Control Serum Blood-Bank to Looped peptides [2]: 0.7
Binding of Control serum Blood-bank to linear peptides [2]: 0.5
Binding of Control serum LUMC to linear peptides [2]: 0.6
Binding of Control serum LUMC to looped peptides [2]: 0.7

TKKNYSELDDEEPME
Rabbit serum linear peptides [1]: 0.2
Rabbit serum looped peptides [1]: 0.1
Binding of Control Serum Blood-Bank to Looped peptides of the protein X3 of SARS-CoV Urbani [2]: 0.4
Binding of Control serum Blood-bank to linear peptides of the protein X3 of SARS-CoV Urbani [2]: 0.8
Binding of Control serum LUMC to linear peptides of the protein X3 of SARS-CoV Urbani [2]: 0.4
Binding of Control serum LUMC to looped peptides of the protein X3 of SARS-CoV Urbani [2]: 0.9

TKLVVILRIGTQVLK
Binding of a rabbit serum to linear peptides [1]: 0.3
Binding of a rabbit serum to looped peptides [1]: 0.6
Binding of Control Serum Blood-Bank to Looped peptides [2]: 0.6
Binding of Control serum Blood-bank to linear peptides [2]: 0.7
Binding of Control serum LUMC to linear peptides [2]: 0.5
Binding of Control serum LUMC to looped peptides [2]: 0.7

TPKLKEDYQIGGYSE
Binding of a rabbit serum to linear peptides [1]: 0.1
Binding of a rabbit serum to looped peptides [1]: 1.2
Binding of Control Serum Blood-Bank to Looped peptides [2]: 0.7
Binding of Control serum Blood-bank to linear peptides [2]: 0.5
Binding of Control serum LUMC to linear peptides [2]: 0.6
Binding of Control serum LUMC to looped peptides [2]: 0.9

TQVLKTMSLYMAISP
Binding of a rabbit serum to linear peptides [1]: 0.1
Binding of a rabbit serum to looped peptides [1]: 0.4
Binding of Control Serum Blood-Bank to Looped peptides [2]: 0.7
Binding of Control serum Blood-bank to linear peptides [2]: 0.7
Binding of Control serum LUMC to linear peptides [2]: 0.7
Binding of Control serum LUMC to looped peptides [2]: 0.8

TTKLVVILRIGTQVL
Recognition of the peptide by the rabbit serum [1]: recognized
Binding of Control Serum Blood-Bank to Looped peptides [2]: 0.6
Binding of Control serum Blood-bank to linear peptides [2]: 0.3
Binding of Control serum LUMC to linear peptides [2]: 0.3
Binding of Control serum LUMC to looped peptides [2]: 0.7

TVYVYSRVKNLNSSE
Binding of a rabbit serum to linear peptides [1]: 0.8
Binding of a rabbit serum to looped peptides [1]: 0.3
Binding of Control Serum Blood-Bank to Looped peptides [2]: 0.7
Binding of Control serum Blood-bank to linear peptides [2]: 0.5
Binding of Control serum LUMC to linear peptides [2]: 0.3
Binding of Control serum LUMC to looped peptides [2]: 0.9

VANPAMDPIYDEPTT
Binding of a rabbit serum to linear peptides [1]: 0.1
Binding of a rabbit serum to looped peptides [1]: 0.5
Binding of Control Serum Blood-Bank to Looped peptides [2]: 0.5
Binding of Control serum Blood-bank to linear peptides [2]: 0.4
Binding of Control serum LUMC to linear peptides [2]: 0.2
Binding of Control serum LUMC to looped peptides [2]: 0.5

VCWHTHNYDYCIPYN
Binding of a rabbit serum to linear peptides [1]: 0.1
Binding of a rabbit serum to looped peptides [1]: 0.6
Binding of Control Serum Blood-Bank to Looped peptides [2]: 0.7
Binding of Control serum Blood-bank to linear peptides [2]: 0.7
Binding of Control serum LUMC to linear peptides [2]: 0.8
Binding of Control serum LUMC to looped peptides [2]: 0.6

VIISSIVRQLFKPLT
Rabbit serum linear peptides [1]: 0.5
Rabbit serum looped peptides [1]: 0.3
Binding of Control Serum Blood-Bank to Looped peptides of the protein X3 of SARS-CoV Urbani [2]: 0.7
Binding of Control serum Blood-bank to linear peptides of the protein X3 of SARS-CoV Urbani [2]: 0.8
Binding of Control serum LUMC to linear peptides of the protein X3 of SARS-CoV Urbani [2]: 0.7
Binding of Control serum LUMC to looped peptides of the protein X3 of SARS-CoV Urbani [2]: 0.8

VKNLNSSEGVPDLLV
Binding of a rabbit serum to linear peptides [1]: 0.3
Binding of a rabbit serum to looped peptides [1]: 0.6
Binding of Control Serum Blood-Bank to Looped peptides [2]: 0.8
Binding of Control serum Blood-bank to linear peptides [2]: 0.7
Binding of Control serum LUMC to linear peptides [2]: 1.1
Binding of Control serum LUMC to looped peptides [2]: 0.9

VKPTVYVYSRVKNLN
Binding of a rabbit serum to linear peptides [1]: 0.5
Binding of a rabbit serum to looped peptides [1]: 0.7
Binding of Control Serum Blood-Bank to Looped peptides [2]: 0.8
Binding of Control serum Blood-bank to linear peptides [2]: 0.8
Binding of Control serum LUMC to linear peptides [2]: 0.4
Binding of Control serum LUMC to looped peptides [2]: 0.8

VNVSLVKPTVYVYSR
Binding of a rabbit serum to linear peptides [1]: 0.4
Binding of a rabbit serum to looped peptides [1]: 0.6
Binding of Control Serum Blood-Bank to Looped peptides [2]: 0.6
Binding of Control serum Blood-bank to linear peptides [2]: 0.6
Binding of Control serum LUMC to linear peptides [2]: 0.8
Binding of Control serum LUMC to looped peptides [2]: 0.8
